Article PMC7093416, “Selective USP7 inhibition elicits cancer cell killing through a p53-dependent mechanism” (Scientific Reports, 2020)

Test system: panel of 484 cancer cell lines
Test: PRISM cancer cell line profiling, 5 days
Format: cell-based
Parameters: AUC: unit not given beside the values
Method: Cancer cell line profiling was performed using the Broad’s PRISM platform. Cell treatment and data analysis were performed as described in Yu et al[42]. Raw Luminex signal was converted to AUC values for each cell line as described. The resulting AUC profile for each compound was modeled against DepMap using the limma package in R[71]. Because hotspot mutation analysis was performed against DepMap, TP53 annotations in Fig. 6c,d are directly from DepMap.

CN1CCN(CCC(=O)Nc2ccc3c(=O)n(CC4(O)CCN(C(=O)[C@@H](CCCNC(=O)c5ccc6c(Cl)c7c(nc6c5)CCCC7)Cc5ccccc5)CC4)cnc3c2)CC1 [XL177A]
AUC (MG63_BONE): 1.147
AUC (MHHES1_BONE): 0.9854
AUC (MIAPACA2_PANCREAS): 0.7815
AUC (MKN1_STOMACH): 1.271
AUC (MKN7_STOMACH): 0.8494
AUC (MKN45_STOMACH): 0.5723
AUC (MKN74_STOMACH): 0.9306
AUC (MON_SOFT_TISSUE): 0.2802
AUC (MPP89_PLEURA): 1.207
AUC (MSTO211H_PLEURA): 0.9069
AUC (NB1_AUTONOMIC_GANGLIA): 0.8293
AUC (NCIH23_LUNG): 0.7147
AUC (NCIH28_PLEURA): 1.117
AUC (NCIH226_LUNG): 0.8849
AUC (NCIH292_LUNG): 1.012
AUC (NCIH322_LUNG): 0.9977
AUC (NCIH358_LUNG): 0.842
AUC (NCIH446_LUNG): 1.125
AUC (NCIH460_LUNG): 1.082
AUC (NCIH520_LUNG): 1.357
AUC (NCIH522_LUNG): 0.9146
AUC (NCIH596_LUNG): 0.8559
AUC (NCIH650_LUNG): 0.8175
AUC (NCIH661_LUNG): 1.081
AUC (NCIH727_LUNG): 1.196
AUC (NCIH747_LARGE_INTESTINE): 0.9621
AUC (NCIH838_LUNG): 0.9473
AUC (NCIH841_LUNG): 0.967
AUC (NCIH1048_LUNG): 1.077
AUC (NCIH1299_LUNG): 1.101
AUC (NCIH1339_LUNG): 0.9923
AUC (NCIH1355_LUNG): 0.948
AUC (NCIH1373_LUNG): 0.8577
AUC (NCIH1435_LUNG): 1.156
AUC (NCIH1437_LUNG): 0.9262
AUC (NCIH1563_LUNG): 0.7202
AUC (NCIH1568_LUNG): 0.8953
AUC (NCIH1573_LUNG): 1.235
AUC (NCIH1581_LUNG): 0.9829
AUC (NCIH1623_LUNG): 0.9673
AUC (NCIH1648_LUNG): 0.9409
AUC (NCIH1650_LUNG): 0.8271
AUC (NCIH1651_LUNG): 1.042
AUC (NCIH1693_LUNG): 0.9884
AUC (NCIH1703_LUNG): 1.041
AUC (NCIH1792_LUNG): 1.0161
AUC (NCIH1793_LUNG): 1.096
AUC (NCIH1838_LUNG): 0.9778
AUC (NCIH1915_LUNG): 0.9037
AUC (NCIH1944_LUNG): 0.9736
AUC (NCIH1975_LUNG): 0.923
AUC (NCIH2009_LUNG): 0.7912
AUC (NCIH2023_LUNG): 1.0442
AUC (NCIH2030_LUNG): 1.09
AUC (NCIH2052_PLEURA): 0.7196
AUC (NCIH2077_LUNG): 1.06
AUC (NCIH2087_LUNG): 0.9147
AUC (NCIH2110_LUNG): 1.049
AUC (NCIH2122_LUNG): 0.751
AUC (NCIH2126_LUNG): 0.9474
AUC (NCIH2170_LUNG): 1.032
AUC (NCIH2172_LUNG): 1.068
AUC (NCIH2228_LUNG): 0.9446
AUC (NCIH2347_LUNG): 0.9414
AUC (NCIH2444_LUNG): 0.981
AUC (NCIH2452_PLEURA): 1.231
AUC (NCIN87_STOMACH): 1.289
AUC (NUGC3_STOMACH): 0.9146
AUC (NUGC4_STOMACH): 0.8113
AUC (OAW42_OVARY): 0.9061
AUC (OC314_OVARY): 1.051
AUC (OC316_OVARY): 1.076
AUC (OE19_OESOPHAGUS): 1.108
AUC (OE21_OESOPHAGUS): 0.9739
AUC (OE33_OESOPHAGUS): 1.005
AUC (ONCODG1_OVARY): 0.9121
AUC (ONS76_CENTRAL_NERVOUS_SYSTEM): 0.7482
AUC (OSRC2_KIDNEY): 0.9599
AUC (OUMS23_LARGE_INTESTINE): 0.9942
AUC (OV56_OVARY): 0.9082
AUC (OVCAR8_OVARY): 1.07
AUC (OVISE_OVARY): 0.8469
AUC (OVK18_OVARY): 0.8349
AUC (OVSAHO_OVARY): 0.9469
AUC (OVTOKO_OVARY): 1.103
AUC (PANC1_PANCREAS): 0.8692
AUC (PANC0203_PANCREAS): 0.8971
AUC (PANC0327_PANCREAS): 1.196
AUC (PANC0403_PANCREAS): 1
AUC (PANC0813_PANCREAS): 0.9365
AUC (PANC1005_PANCREAS): 1.142
AUC (PATU8902_PANCREAS): 1.125
AUC (PATU8988S_PANCREAS): 1.237
AUC (PATU8988T_PANCREAS): 0.9888
AUC (PC3_PROSTATE): 0.9272
AUC (PC14_LUNG): 0.8983
AUC (PECAPJ15_UPPER_AERODIGESTIVE_TRACT): 0.8461
AUC (PECAPJ41CLONED2_UPPER_AERODIGESTIVE_TRACT): 0.7551
AUC (PECAPJ49_UPPER_AERODIGESTIVE_TRACT): 0.693
AUC (PK1_PANCREAS): 1.009
AUC (PK45H_PANCREAS): 1.081
AUC (PK59_PANCREAS): 1.041
AUC (PLCPRF5_LIVER): 1.069
AUC (PSN1_PANCREAS): 0.9727
AUC (QGP1_PANCREAS): 1.095
AUC (RCC10RGB_KIDNEY): 1.14
AUC (RCM1_LARGE_INTESTINE): 1.19
AUC (RD_SOFT_TISSUE): 0.8902
AUC (RERFLCAD1_LUNG): 1.191
AUC (RERFLCAD2_LUNG): 1.139
AUC (RERFLCAI_LUNG): 0.8829
AUC (RERFLCKJ_LUNG): 0.8002
AUC (RERFLCMS_LUNG): 1.045
AUC (RH30_SOFT_TISSUE): 0.9309
AUC (RKN_SOFT_TISSUE): 0.8534
AUC (RKO_LARGE_INTESTINE): 0.7552
AUC (RL952_ENDOMETRIUM): 0.9781
AUC (RMGI_OVARY): 0.9543
AUC (RMUGS_OVARY): 0.8888
AUC (RT4_URINARY_TRACT): 1.356
AUC (RT112_URINARY_TRACT): 1.227
